Results: US20240238425A1, “HSD17B13 Inhibitors and/or Degraders” (Pfizer Inc., priority 2022, published 2024)
Counter-ions that a name gives are not always drawn.

Test system: HiBiT-HSD17β13 fusion protein (N-terminal HiBiT-tagged HSD17β13 isoform D) in Huh7 HiBiT-HSD17β13 OE cells
Test: Whole-cell Huh7-HSD17B13 HiBiT assay (degrader potency and maximal efficacy, luminescence readout)
Type: cell-based, human
Conditions: 24 hour incubation, geometric mean, * = geometric mean for all forms tested (parent and salt forms); for DC50: read-out: Huh7_HIBIT-HSD17β13_DC50 GMean DC50; for Huh7_HIBIT-HSD17β13_DC50 GMean Asymptote Maximum: max. concentration 1 μM
Method in brief: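 Huh7 cells stably overexpressing N-terminal HiBiT-tagged HSD17β13 isoform D, clone matched to primary hepatocyte expression, were exposed to an 11-point, 1 in 3.162 dilution series (top 1 μM final) for 24 h at 37° C. Lytic HiBiT luminescence was normalised to DMSO and parental-cell controls; DC50 from four-parameter logistic fit, with CellTiter-Glo counter screen.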

Row | DC50 [nM] | Compound | Huh7_HIBIT-HSD17β13_DC50 GMean Asymptote Maximum
1 | 0.37 | Cn1c(=O)n(C2CCC(=O)NC2=O)c2ccc(CCCN3CCN(c4nc(-c5nc([C@]67CC[C@](CNC(=O)c8cc(F)c(O)c(F)c8F)(CC6)CC7)no5)cc(N5CCCC5)n4)CC3)cc21 (mixture of isomers) [Example 127, N-{[4-(5-{2-[4-(3-{1-[(3RS)-2,6-dioxopiperidin-3-yl]-3-methyl-2-oxo-2,3-dihydro-1H-benzimidazol-5-yl}propyl)piperazin-1-yl]-6-(pyrrolidin-1-yl)pyrimidin-4-yl}-1,2,4-oxadiazol-3-yl)bicyclo[2.2.2]octan-1-yl]methyl}-2,3,5-trifluoro-4-hydroxybenzamide, trifluoroacetate salt] | 79%
2 | 0.4 | COc1cc(-c2nc([C@]34CC[C@](CNC(=O)c5cc(F)c(O)c(F)c5F)(CC3)CC4)no2)nc(N2CCN(CCCc3ccc4c(c3)n(C)c(=O)n4C3CCC(=O)NC3=O)CC2)n1 (mixture of isomers) [Example 128, N-{[4-(5-{2-[4-(3-{1-[(3RS)-2,6-dioxopiperidin-3-yl]-3-methyl-2-oxo-2,3-dihydro-1H-benzimidazol-5-yl}propyl)piperazin-1-yl]-6-methoxypyrimidin-4-yl}-1,2,4-oxadiazol-3-yl)bicyclo[2.2.2]octan-1-yl]methyl}-2,3,5-trifluoro-4-hydroxybenzamide] | 79%
3 | 0.42 | Cn1c(=O)n(C2CCC(=O)NC2=O)c2ccc(CCCN3Cc4ccc(-c5ccc6c(C7CC7)n([C@H]7CC[C@H](CNC(=O)c8cc(F)c(O)c(F)c8F)CC7)nc6c5)cc4C3)cc21 (mixture of isomers) [Example 129, N-{[(1r,4r)-4-{3-cyclopropyl-6-[2-(3-{1-[(3RS)-2,6-dioxopiperidin-3-yl]-3-methyl-2-oxo-2,3-dihydro-1H-benzimidazol-5-yl}propyl)-2,3-dihydro-1H-isoindol-5-yl]-2H-indazol-2-yl}cyclohexyl]methyl}-2,3,5-trifluoro-4-hydroxybenzamide, trifluoroacetate salt] | 83%
4 | 0.5 | Cn1c(=O)n(C2CCC(=O)NC2=O)c2ccc(CCCN3CCN(c4cnc(-c5ccn6cc([C@]78CC[C@](CNC(=O)c9cc(F)c(O)c(F)c9F)(CC7)CC8)nc6c5)cn4)CC3)cc21 (mixture of isomers) [Example 130, N-{[4-(7-{5-[4-(3-{1-[(3RS)-2,6-dioxopiperidin-3-yl]-3-methyl-2-oxo-2,3-dihydro-1H-benzimidazol-5-yl}propyl)piperazin-1-yl]pyrazin-2-yl}imidazo[1,2-a]pyridin-2-yl)bicyclo[2.2.2]octan-1-yl]methyl}-2,3,5-trifluoro-4-hydroxybenzamide, trifluoroacetate salt] | 83%
5 | 1.6 | O=C1CCC(N2Cc3cc(N4CCC(CCN5CCN(c6nccc(-c7nc([C@]89CC[C@](CNC(=O)c%10cc(F)c(O)c(F)c%10F)(CC8)CC9)no7)n6)CC5)CC4)ccc3C2=O)C(=O)N1 (mixture of isomers) [Example 132, N-({4-[5-(2-{4-[2-(1-{2-[(3RS)-2,6-dioxopiperidin-3-yl]-1-oxo-2,3-dihydro-1H-isoindol-5-yl}piperidin-4-yl)ethyl]piperazin-1-yl}pyrimidin-4-yl)-1,2,4-oxadiazol-3-yl]bicyclo[2.2.2]octan-1-yl}methyl)-2,3,5-trifluoro-4-hydroxybenzamide, trifluoroacetate salt] | 82%
6 | 6.5 | Cn1c(=O)n(C2CCC(=O)NC2=O)c2ccc(CC(C)(C)CN3CCN(c4nccc(-c5nc([C@]67CC[C@](CNC(=O)c8cc(F)c(O)c(F)c8F)(CC6)CC7)no5)n4)CC3)cc21 (mixture of isomers) [Example 134, N-{[4-(5-{2-[4-(3-{1-[(3RS)-2,6-dioxopiperidin-3-yl]-3-methyl-2-oxo-2,3-dihydro-1H-benzimidazol-5-yl}-2,2-dimethylpropyl)piperazin-1-yl]pyrimidin-4-yl}-1,2,4-oxadiazol-3-yl)bicyclo[2.2.2]octan-1-yl]methyl}-2,3,5-trifluoro-4-hydroxybenzamide, trifluoroacetate salt] | 85%
7 | 1.7 | O=C1CCN(c2cnn3cc(CCCN4CCO[C@]5(CCN(c6ccc7cn([C@H]8CC[C@H](CNC(=O)c9cc(F)c(O)c(F)c9F)CC8)nc7c6)C5)C4)ccc23)C(=O)N1 (single isomer, unassigned) [Example 30, trifluoroacetate salt] | 74%
8 | 0.28 | Cl.O=C1CCN(c2cnn3cc(CCCN4CCN(c5cnc(-c6ccc7cn([C@H]8CC[C@H](CNC(=O)c9cc(F)c(O)c(F)c9F)CC8)nc7c6)cn5)CC4)ccc23)C(=O)N1 [Example 10, N-{[(1r,4r)-4-{6-[5-(4-{3-[3-(2,4-Dioxo-1,3-diazinan-1-yl)pyrazolo[1,5-a]pyridin-6-yl]propyl}piperazin-1-yl)pyrazin-2-yl]-2H-indazol-2-yl}cyclohexyl]methyl}-2,3,5-trifluoro-4-hydroxybenzamide, hydrochloride salt] | 82%
9 | 0.94 | Cc1ccc(C(=O)N2CCC3(CC2)CC(N2CCN(c4ncc(-c5ccc6cn(C7CCC(CNC(=O)c8cc(F)c(O)c(F)c8F)CC7)nc6c5)cn4)CC2)CO3)cc1N1CCC(=O)NC1=O (centres unmarked) [Example 11, N-{[(1r,4r)-4-{6-[2-(4-{8-[3-(2,4-Dioxo-1,3-diazinan-1-yl)-4-methylbenzoyl]-1-oxa-8-azaspiro[4.5]decan-3-yl}piperazin-1-yl)pyrimidin-5-yl]-2H-indazol-2-yl}cyclohexyl]methyl}-2,3,5-trifluoro-4-hydroxybenzamide] | 81%
10 | 2.3 | Cc1ccc(C(=O)N2CCC(CCCCN3CCN(c4ccc5cn(C6CCC(CNC(=O)c7cc(F)c(O)c(F)c7F)CC6)nc5c4)CC3)CC2)cc1N1CCC(=O)NC1=O (centres unmarked) [Example 20, N-{[(1r,4r)-4-{6-[4-(4-{1-[3-(2,4-Dioxo-1,3-diazinan-1-yl)-4-methylbenzoyl]piperidin-4-yl}butyl)piperazin-1-yl]-2H-indazol-2-yl}cyclohexyl]methyl}-2,3,5-trifluoro-4-hydroxybenzamide] | 78%
11 | 2.4 | Cc1ccc(C(=O)N2CCC(CCCn3cc(-c4ccc5cn([C@H]6CC[C@H](CNC(=O)c7cc(F)c(O)c(F)c7)CC6)nc5c4)cn3)CC2)cc1N1CCC(=O)NC1=O [Example 23, N-{[(1r,4r)-4-{6-[1-(3-{1-[3-(2,4-dioxo-1,3-diazinan-1-yl)-4-methylbenzoyl]piperidin-4-yl}propyl)-1H-pyrazol-4-yl]-2H-indazol-2-yl}cyclohexyl]methyl}-3,5-difluoro-4-hydroxybenzamide] | 75%
12 | 0.59 | O=C1CCN(c2cnn3cc(CCCN4CCOC5(CCN(c6ccc7cn([C@H]8CC[C@H](CNC(=O)c9cc(F)c(O)c(F)c9F)CC8)nc7c6)CC5)C4)ccc23)C(=O)N1 [Example 28, N-({(1r,4r)-4-[6-(4-{3-[3-(2,4-dioxo-1,3-diazinan-1-yl)pyrazolo[1,5-a]pyridin-6-yl]propyl}-1-oxa-4,9-diazaspiro[5.5]undecan-9-yl)-2H-indazol-2-yl]cyclohexyl}methyl)-2,3,5-trifluoro-4-hydroxybenzamide] | 90%
13 | 1.9 | O=C1CCN(c2cnn3cc(CCCN4CC(F)(F)C5(C4)CN(c4ccc6cn([C@H]7CC[C@H](CNC(=O)c8cc(F)c(O)c(F)c8F)CC7)nc6c4)C5)ccc23)C(=O)N1 [Example 29, N-({(1r,4r)-4-[6-(6-{3-[3-(2,4-dioxo-1,3-diazinan-1-yl)pyrazolo[1,5-a]pyridin-6-yl]propyl}-8,8-difluoro-2,6-diazaspiro[3.4]octan-2-yl)-2H-indazol-2-yl]cyclohexyl}methyl)-2,3,5-trifluoro-4-hydroxybenzamide] | 80%
14 | 4.1 | Cc1ccc(C(=O)N2CCC(CCCN3CCN(c4ccc5cn([C@H]6CC[C@H](CNC(=O)c7cc(F)c(O)c(F)c7F)CC6)nc5c4)CC3)CC2)cc1N1CCC(=O)NC1=O [Example 40, N-{[(1r,4r)-4-{6-[4-(3-{1-[3-(2,4-dioxo-1,3-diazinan-1-yl)-4-methylbenzoyl]piperidin-4-yl}propyl)piperazin-1-yl]-2H-indazol-2-yl}cyclohexyl]methyl}-2,3,5-trifluoro-4-hydroxybenzamide, trifluoroacetate salt] | 74%

Row | Compound | DC50 [nM] | Huh7_HIBIT-HSD17β13_DC50 GMean Asymptote Maximum
15 | Cc1ccc(C(=O)N2CCN(CCOc3ncc(-c4ccc5cn(C6CCC(CNC(=O)c7cc(F)c(O)c(F)c7F)CC6)nc5c4)cn3)CC2)cc1N1CCC(=O)NC1=O.O=C(O)C(F)(F)F (centres unmarked) [Example 7, N-{[(1r,4r)-4-{6-[2-(2-{4-[3-(2,4-Dioxo-1,3-diazinan-1-yl)-4-methylbenzoyl]piperazin-1-yl}ethoxy)pyrimidin-5-yl]-2H-indazol-2-yl}cyclohexyl]methyl}-2,3,5-trifluoro-4-hydroxybenzamide, trifluoroacetate salt] | 3 | 78* %
16 | O=C(O)C(F)(F)F.O=C1CCN(c2cnc3cc(CCCN4CCN(c5ncc(-c6ccc7cn(C8CCC(CNC(=O)c9cc(F)c(O)c(F)c9F)CC8)nc7c6)cn5)CC4)ccn23)C(=O)N1 (centres unmarked) [Example 19, N-{[(1r,4r)-4-{6-[2-(4-{3-[3-(2,4-Dioxo-1,3-diazinan-1-yl)imidazo[1,2-a]pyridin-7-yl]propyl}piperazin-1-yl)pyrimidin-5-yl]-2H-indazol-2-yl}cyclohexyl]methyl}-2,3,5-trifluoro-4-hydroxybenzamide, trifluoroacetate salt] | 0.73 | 82%
